Blank lines part the entries; values can stand above or below the compound they belong to. Active and inactive are the calls of the source. The rule behind the calls is not given here.
Experiments:
[1] = target: T1, Urokinase-type plasminogen activator/surface receptor (Homo sapiens, UniProt P00749+Q03405); experiment: Inhibition of uPAR/uPA (unknown origin) interaction assessed as dissociation constant by fluorescence polarization (FP) assay; format: protein assay
[2] = target: T1, Urokinase-type plasminogen activator/surface receptor; experiment: Inhibition of uPAR/uPA (unknown origin) interaction by ELISA; format: protein assay
[3] = tested on: MDA-MB-231; experiment: Antimigratory activity in human MDA-MB-231 cells assessed as scratch closure speed at 5 to 50 uM by scratch wound healing assay; format: functional, cell-based; conditions: dose 5-50 µM
[4] = tested on: MDA-MB-231; experiment: Anti-invasive activity in human MDA-MB-231 cells assessed as relative invasion at 5 to 50 uM by scratch wound healing assay; format: functional, cell-based; conditions: dose 5-50 µM
[5] = tested on: MDA-MB-231; experiment: Antimigratory activity in human MDA-MB-231 cells assessed as relative migration at 5 to 50 uM by scratch wound healing assay; format: functional, cell-based; conditions: dose 5-50 µM

Structure (SMILES): CC[C@H](C)[C@@H](C(N)=O)n1cc([C@@H](CO)N2C(=O)N[C@@H](Cc3ccccc3)C2=O)nn1
Ki [1]: 7.5 µM | IC50 [2]: 8.35 µM

Structure (SMILES): NCCCC[C@H](C(=O)N1CCN([C@H](Cc2ccccc2)C(N)=O)CC1)N1CCN(C(=O)[C@H](N)CO)CC1
Activity [3]: Active | Activity [4]: Active | Ki [1]: 2.75 µM | IC50 [2]: 3.06 µM

Structure (SMILES): NC(=O)C[C@H](C(=O)N1CCN([C@H](CO)C(N)=O)CC1)N1CCN(C(=O)[C@H](N)Cc2ccccc2)CC1
Ki [1]: 13.2 µM | IC50 [2]: 14.7 µM

Structure (SMILES): Cc1cccc2c(C(=O)N3CCN(c4c(C)n(C)c(=O)n(C)c4=O)CC3)cc(-c3ccccc3)nc12
Ki [1]: 2.5 µM | IC50 [2]: 15.5 µM

More lines, main results first:

Ki [1]: 6.2 µM | IC50 [2]: 3.06 µM
Structure (SMILES): NCCCC[C@H](C(=O)N1CCN([C@@H](Cc2ccccc2)C(N)=O)CC1)N1CCN(C(=O)[C@H](N)CO)CC1

Ki [1]: 2.56 µM | IC50 [2]: 2.85 µM
Structure (SMILES): CC[C@H](C)[C@@H](C(N)=O)n1cc([C@@H](CO)NC(=O)N2CCN([C@@H](CO)C(=O)N3CCN([C@@H](CCCCN)C(=O)O)CC3)CC2)nn1

Ki [1]: 2.2 µM | IC50 [2]: 2.45 µM
Structure (SMILES): NCCCC[C@H](C(=O)N1CCN([C@@H](CO)C(N)=O)CC1)n1cc([C@@H](Cc2ccccc2)N2C(=O)N[C@@H](CO)C2=O)nn1
Activity [5]: Active

Ki [1]: 0.7 µM | IC50 [2]: 18.4 µM
Structure (SMILES): Cc1ccc(N2C(=O)C(O)=C(C(=O)c3ccc(Cl)cc3)C2c2cccc(F)c2)cc1Br (centres undefined)

— ChEMBL document CHEMBL5104189, “Piptide Chemotypes for Perturbation of the Interaction of Urokinase with Its Receptor” (J Med Chem, 2022)
